Experiments:
[1] = tested on: cultured chick heart cells; assay: Effect of 8-anilino-1-naphthalene sulfonic acid on net uptake of Tc-MIBI in cultured chick heart cells (FIG. 9); assay type: cell-based; details: Gallus gallus, 0.5 h; 8-ANS 10^-4 M, within 30 minutes; read-out: net uptake of Tc-MIBI enhanced over the control
Method: FIG. 9. Effect of 8-anilino-1-naphthalene sulfonic acid on net uptake of Tc-M1B1 in cultured chick heart cells. Preparations were incubated for the times indicated in Tc-MIBI loading buffer in the absence (.quadrature.) and presence of 8-ANS ( , 10^-7 M; , 10^-4 M). Each point represents the mean ±SEM of 3-4 determinations.
(§1) Monolayers of spontaneously contractile chick ventricular myocardial cells were obtained from disaggregated 10-day old chick embryo hearts by a slight modification of previously published methods (Horres, C. R., et al., In Pinson, A. (ed.), The Heart Cell in Culture, Boca Raton, CRC Press, pp. 77-108 (1987)). Hearts were trimmed of connective tissue and atria, finely minced and serially exposed to 0.024% (w/v) trypsin in Ca^2+ - and Mg^2+ - free Earle's salt solution for 7 minutes at 37° C. Gentle trituration and agitation on an orbital shaker bath aided disaggregation. Cells released from the first exposure were discarded and cells aspirated from the next four exposures were then added to an equal volume of trypsin deactivating solution consisting of ice-cold culture medium. Cells were centrifuged at 400 g for 10 minutes, resuspended and combined in culture medium, counted with a hemocytometer and diluted to yield a suspension of 5×10^5 cells/ml. […]

cultured heart cells = assay: TPB toxicity at high concentration in cultured heart cells; assay type: cell-based, chick; details: TPB 10^-4 M
[2] = tested on: cultured chick heart cells; assay: Concentration-effect curve for TPB enhancement of 2-minute uptake of Tc-MIBI (FIG. 2); assay type: cell-based
Method: FIG. 2. Concentration-effect curve for TPB enhancement of 2-minute uptake of Tc-MIBI. Preparations were pre-incubated for 1 minute in control MEBSS buffer containing TPB at the indicated concentrations prior to determination of tracer Tc-MIBI uptake in the continued presence of TPB. Each point represents the mean ±SEM of 3 determinations.
as §1

[3] = tested on: cultured chick heart cells; assay: Effect of TPB on net accumulation of Tc-MIBI in cultured chick heart cells (FIG. 1); assay type: cell-based; details: TPB 10^-5 M; P <0.001
Method: FIG. 1. Effect of TPB on net accumulation of Tc-MIBI in cultured chick heart cells. Preparations were incubated for the times indicated in Modified Earle's Basic Salt Solution (MEBSS) control buffer containing tracer Tc-MIBI alone (.quadrature.) and with various concentrations of tetraphenylborate: ( ) 10^-9 M; ( ) 5×10^-7 M; (·) 10^-5 M. Results are expressed as fmol cellular Tc-MIBI/mg protein per nM extracellular Tc MIBI. Each point represents the mean ±SEM of 3 determinations.
Control buffer was a modified Earle's balanced salt solution (MEBSS) with the following composition (mN) Na^30, 145; K^+, 5.4; Ca^2, 1.2; Mg^2+, 0.8; Cl, 152; H2 PO4, 0.8; SO4^2-, 0.8; dextrose, 5.6; HEPES, 4.0; and bovine calf serum, 1% (v/v); pH 78.4±0.05; 37° C. […]
Monolayers of spontaneously contractile chick ventricular myocardial cells were obtained from disaggregated 10-day old chick embryo hearts by a slight modification of previously published methods (Horres, C. R., et al., In Pinson, A. (ed.), The Heart Cell in Culture, Boca Raton, CRC Press, pp. 77-108 (1987)). […] Cells were centrifuged at 400 g for 10 minutes, resuspended and combined in culture medium, counted with a hemocytometer and diluted to yield a suspension of 5×10^5 cells/ml. […]

[4] = tested on: cultured chick heart cells; assay: Influence of TPB and CCCP on (membrane potential-independent) accumulation of Tc-MIBI (FIG. 4); assay type: cell-based; details: TPB; CCCP
Method: FIG. 4. […] Preparations were incubated for the times indicated in 5.4 mM Ko control loading buffer containing tracer Tc-MIBI and TPB together (Δ) or in loading buffer containing Tc-MIBI alone (.quadrature.). For the latter incubation, TPB was added to the loading buffer at the arrow and cell content of Tc-MIBI subsequently determined (o). Under each condition, CCCP was added to the loading buffers as indicated by the arrows and cell content of Tc-MIBI determined ( , , ·). Each point is the mean ±SEM of 3 determinations.
Monolayers of spontaneously contractile chick ventricular myocardial cells were obtained from disaggregated 10-day old chick embryo hearts by a slight modification of previously published methods (Horres, C. R., et al., In Pinson, A. (ed.), The Heart Cell in Culture, Boca Raton, CRC Press, pp. 77-108 (1987)). Hearts were trimmed of connective tissue and atria, finely minced and serially exposed to 0.024% (w/v) trypsin in Ca^2+ - and Mg^2+ - free Earle's salt solution for 7 minutes at 37° C. Gentle trituration and agitation on an orbital shaker bath aided disaggregation. Cells released from the first exposure were discarded and cells aspirated from the next four exposures were then added to an equal volume of trypsin deactivating solution consisting of ice-cold culture medium. Cells were centrifuged at 400 g for 10 minutes, resuspended and combined in culture medium, counted with a hemocytometer and diluted to yield a suspension of 5×10^5 cells/ml. 12 ml of suspension were incubated in 100 mm plastic culture dishes containing 7 coverslips (25 mm diameter) placed on the bottom of each dish to serve as substrate for cell growth. Cells were maintained in a humidified atmosphere of 5% CO2 /95% air for 3-4 days yielding a confluent layer of spontaneously contractile myocytes on each coverslip.
Radioactive uptake methods have been described in detail (Piwnica-Worms, D., et al, Circ. (in press). Briefly, coverslips with confluent cells were removed from culture media and pre-equilibrated for 40-60 seconds in MEBSS buffer. Uptake and retention experiments were initiated by immersion of coverslips in 60 mm glass Pyrex dishes containing loading solution consisting of buffer with 0.1-0.6 nM [^99m Tc-MIBI] (0.01-0.4 Ci/nmole; 25-100 uCi/ml). Preparations were removed at various times and rinsed three times in 25 ml volumes of ice-cold (2° C.) isotope-free buffer for 8 seconds each to clear extracellular spaces. Preparations and aliquots of the loading buffer and stock solutions were counted in a well-type sodium iodide gamma counter after which cell protein on each coverslip was extracted in 1% sodium dodecylsulfate with 10 mM sodium borate and assayed by the method of Lowry (Lowry, O. H., et al., J. Biol. Chem. 193:265-275 (1951)). Tc-MIBI binding to glass coverslips without cells was used as an estimate of non-specific adhesion to the substrate ([…] obtained with cellular preparations); this value was subtracted from total uptake determinations to derive the cell-associated counts. Use of generator equilibrium equations (Lamson, M. L., et al., i J. Nucl. Med. 16:639-641 (1975)) allowed calculation of absolute moles of Tc-MIBI in solutions and preparations. Results were therefore expressed as fmol cellular Tc-MIBI/mg protein per nM extracellular Tc-MIBI concentration. […]

[5] = Effect of tetraphenylborate on the biodistribution of Tc-MIBI in rats (Table 2); assay type: in vivo; details: TPB vs no TPB
Method: The results are expressed as percent injected dose per gram of tissue. […] For this series of experiments, 50 microliters of dimethylsulfoxide lacking or containing 7.2 mM TPB were injected directly into the jugular vein of anesthetized rats immediately prior to the injection of Tc-MIBI (150 microliters; 100 microCuries per 200 microliters).
After 15 minutes, the animal was sacrificed by thoracotomy, organs extracted and placed in test tubes and counted for radioactivity in a standard well-type gamma counter. Tissue wet weights were obtained by subtracting fare weights from total weight of test tubes plus tissue.
Results are expressed as mean ±SEM of three determinations each.

perfused rabbit heart = details: ouabain 1.5×10^-6 M; cited from earlier work

O=S(=O)(O)c1cccc2cccc(Nc3ccccc3)c12 [8-anilino-1-naphthalene sulfonic acid]
activation at 100 µM [1]: 25%

c1ccc([B-](c2ccccc2)(c2ccccc2)c2ccccc2)cc1 [TPB, tetraphenylborate]
enhancement of Tc-MIBI accumulation / cellular toxicity (cultured heart cells): relatively less enhancement of Tc-MIBI accumulation compared to moderate TPB concentrations suggesting cellular toxicity
myocellular uptake of Tc-MIBI increased in a concentration-dependent manner up to [2]: up to 3×10^-5 M
EC50 ([2]; Gallus gallus, 1 minute pre-incubation with TPB, read-out: half-maximal concentration for TPB enhancement of myocellular uptake of Tc-MIBI): 3000 nM
peak accumulation of Tc-MIBI, greater than control [3]: 4 fold
residual CCCP-insensitive Tc-MIBI content, of the TPB-enhanced Tc-MIBI content [4]: 13%
Tc-MIBI accumulation in liver, kidney, lung and blood [5]: significant increase in Tc-MIBI accumulation within the tissues
increase in tissue retention of Tc-MIBI, all tissues [5]: 50%

CC1OC(OC2CC(O)C3(CO)C4C(O)CC5(C)C(C6=CC(=O)OC6)CCC5(O)C4CCC3(O)C2)C(O)C(O)C1O (stereo not drawn) [oaubain]
net tissue extraction of Tc-MIBI (perfused rabbit heart): alter net tissue extraction of Tc-MIBI

Reference: US5277897A, “In vivo enhancement of cellular accumulation of lipophilic cationic organometallic compounds by reduction of intramembrane potential” (Brigham and Women's Hospital, priority 1992, dated 1994)
